Read-outs that look alike come from different tables or passages of the source.
What was measured:
[1] = system: 3D7-strain P. falciparum asexual parasites; experiment: P. falciparum asexual growth inhibition assay (Pf GIA); assay type: cell-based, Plasmodium falciparum; details: dose response confirmation; read-out: Pf asexual growth inhibition assays IC50
In short: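 LDH readout: absorbance at 650 nm after 10 min at room temperature with lactate/APAD/NBT/diaphorase mix on thawed plates. Cultures (0.25% parasitemia, 2% hematocrit) were treated 72 h at 37°C in low-oxygen gas. Inhibition was normalised to 50 μM chloroquine and DMSO; n=3 biological replicates.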

[2] = system: HepG2 cells; experiment: HepG2 cytotoxicity assay; details: for Unified cytotox: HepG2 values of the three screens unified; for IC50: read-out: HepG2 cytotoxicity assay IC50, dose response confirmation
In short: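 HepG2 cells, 2,500 per well in MEM with 10% FBS and 1% NEAA, exposed to compounds for 48 h at 37°C, 5% CO2. Viability read by fluorescence; percent inhibition relative to 50 μM doxorubicin and DMSO controls.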

[3] = system: P. berghei ookinete development; details: for Is compound selective in assay? Pb ODA active?: 1: YES, 0: NO; for % inhibition, Replicate A / % inhibition, Replicate B: primary screen at 1 μM
[4] = system: P. falciparum late stage (stages IV-V) gametocytes; design: method as in Almela et al 2016; details: ref Almela et al 2016; read-out: Pf GCT ATP IC50; cited from earlier work
[5] = system: HepG2 cells; details: HepG2; ref Almela et al 2016; cited from earlier work
[6] = system: P. falciparum late stage (stages IV-V) gametocytes; experiment: P. falciparum late stage gametocyte ATP depletion assay (Pf GC-ATP); details: 1: YES; 0: NO
[7] = read-out: Pb ODA IC50, this manuscript
[8] = read-out: Pb Ookinete development assay IC50, dose response confirmation

## Cn1nc(C(F)(F)F)c(-c2ccc(Br)cc2)c1NC(=O)Cc1ccccc1F [TCMDC-123792]
[1]
  IC50: 206 nM
[2]
  Unified cytotox: 100.00 µM
  IC50: 100000 nM
[3]
  Is compound selective in assay? Pb ODA active?: 1 (1: YES)
  % inhibition, Replicate A: 45.62%
  % inhibition, Replicate B: 73.81%
[3]; [7]
  IC50: 2120 nM
[3]; [8]
  IC50: 2120 nM
[4]
  IC50: 1790 nM
[5]
  HepG2 cytoxicity (Pf GCT ATP screen): >25 µM
[6]
  Is compound selective in assay? Pf GC-ATP active?: 1 (1: YES)

## CN1c2ccc([N+](=O)[O-])cc2C(C)(C)C12C=Cc1cc(Br)cc([N+](=O)[O-])c1O2 (stereo not shown) [TCMDC-124178]
[1]
  IC50: 197 nM
[2]
  HepG2 cytoxicity (Pb ODA, this manuscript): 29.17 µM
  Unified cytotox: 29.17 µM
  IC50: 29200 nM
[3]
  Is compound selective in assay? Pb ODA active?: 1 (1: YES)
  % inhibition, Replicate A: 65.23%
  % inhibition, Replicate B: 65.28%
[3]; [7]
  IC50: 1600 nM
[3]; [8]
  IC50: 1600 nM
[4]
  IC50: 1090 nM
[5]
  HepG2 cytoxicity (Pf GCT ATP screen): >25 µM
[6]
  Is compound selective in assay? Pf GC-ATP active?: 1 (1: YES)

## Cl.Cl.c1ccc2c(NCCCCCCNc3c4ccccc4nc4ccccc34)c3ccccc3nc2c1 [TCMDC-124285]
[1]
  IC50: 532 nM
[2]
  HepG2 cytoxicity (Pb ODA, this manuscript): 8.13 µM
  Unified cytotox: 7.56 µM
  IC50: 8130 nM
[3]
  Is compound selective in assay? Pb ODA active?: 0 (0: NO)
  % inhibition, Replicate A: 78.92%
  % inhibition, Replicate B: 53.92%
[3]; [7]
  IC50: 1500 nM
[3]; [8]
  IC50: 1500 nM
[4]
  IC50: 250 nM
[5]
  HepG2 cytoxicity (Pf GCT ATP screen): 7 µM
[6]
  Is compound selective in assay? Pf GC-ATP active?: 1 (1: YES)

## Cc1ccc(C)c(CC(=O)N2CCC(n3c(C)nc4ccc(F)cc43)CC2)c1 [TCMDC-124790]
[1]
  IC50: 252 nM
[2]
  HepG2 cytoxicity (Pb ODA, this manuscript): 57.54 µM
  Unified cytotox: 57.54 µM
  IC50: 57500 nM
[3]
  Is compound selective in assay? Pb ODA active?: 1 (1: YES)
  % inhibition, Replicate A: 55.29%
  % inhibition, Replicate B: 63.09%
[3]; [7]
  IC50: 3660 nM
[3]; [8]
  IC50: 3660 nM
[4]
  IC50: 920 nM
[5]
  HepG2 cytoxicity (Pf GCT ATP screen): >25 µM
[6]
  Is compound selective in assay? Pf GC-ATP active?: 1 (1: YES)

## COc1cccc(CC(=O)N2CCC(n3c(C)nc4ccc(C)cc43)CC2)c1 [TCMDC-124791]
[1]
  IC50: 98 nM
[2]
  Unified cytotox: 100.00 µM
  IC50: 100000 nM
[3]
  Is compound selective in assay? Pb ODA active?: 1 (1: YES)
  % inhibition, Replicate A: 79.91%
  % inhibition, Replicate B: 77.59%
[3]; [7]
  IC50: 1120 nM
[3]; [8]
  IC50: 1120 nM
[4]
  IC50: 470 nM
[5]
  HepG2 cytoxicity (Pf GCT ATP screen): >25 µM
[6]
  Is compound selective in assay? Pf GC-ATP active?: 1 (1: YES)

## Cc1[nH]c2ccccc2c1C(=O)C(C)Sc1n[nH]c(-c2ccccc2Br)n1 (stereo not shown) [TCMDC-125114]
[1]
  IC50: 57 nM
[2]
  Unified cytotox: 74.66 µM
  IC50: 100000 nM
[3]
  Is compound selective in assay? Pb ODA active?: 1 (1: YES)
  % inhibition, Replicate A: 114.44%
  % inhibition, Replicate B: 73.49%
[3]; [7]
  IC50: 170 nM
[3]; [8]
  IC50: 174 nM
[4]
  IC50: 670 nM
[5]
  HepG2 cytoxicity (Pf GCT ATP screen): 49.31 µM
[6]
  Is compound selective in assay? Pf GC-ATP active?: 1 (1: YES)

## COc1cccc(NC(=O)[C@H](C(C)C)n2c(=O)[nH]c3ccccc3c2=O)c1 [TCMDC-125133]
[1]
  IC50: 170 nM
[2]
  Unified cytotox: 100.00 µM
  IC50: 100000 nM
[3]
  Is compound selective in assay? Pb ODA active?: 1 (1: YES)
  % inhibition, Replicate A: 62.00%
  % inhibition, Replicate B: 73.38%
[3]; [8]
  IC50: 1530 nM
[4]
  IC50: 540 nM
[5]
  HepG2 cytoxicity (Pf GCT ATP screen): >50 µM
[6]
  Is compound selective in assay? Pf GC-ATP active?: 1 (1: YES)

## CCOc1ccc(-c2nonc2NC(=O)c2cccc(Cl)c2)cc1OCC [TCMDC-125200]
[1]
  IC50: 156 nM
[2]
  HepG2 cytoxicity (Pb ODA, this manuscript): 19.50 µM
  Unified cytotox: 19.50 µM
  IC50: 19500 nM
[3]
  Is compound selective in assay? Pb ODA active?: 0 (0: NO)
  % inhibition, Replicate A: 62.08%
  % inhibition, Replicate B: 54.18%
[3]; [7]
  IC50: 6230 nM
[3]; [8]
  IC50: 6230 nM
[4]
  IC50: 840 nM
[5]
  HepG2 cytoxicity (Pf GCT ATP screen): >25 µM
[6]
  Is compound selective in assay? Pf GC-ATP active?: 1 (1: YES)

— publication PMC6753678, “Fueling Open Innovation for Malaria Transmission-Blocking Drugs: Hundreds of Molecules Targeting Early Parasite Mosquito Stages” (Frontiers in Microbiology, 2019)
